Toxic doses and inconclusive results are not listed.
System: BDF1 mice, P388 leukemia ip, median survival T/C
Test: NCI In Vivo Anticancer Drug Screen. Data for tumor model P388 Leukemia (intraperitoneal) in B6D2F1 (BDF1) mice
Conditions: endpoint: median survival time, higher = longer survival
Procedure, shortened: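 Survival ratio, drug arm over vehicle arm, in mice with a transplanted tumour.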

[1] = dose: 100.0 mg/kg/injection, schedule: Q04DX002 (ip), vehicle: saline with Tween-80
[2] = dose: 200.0 mg/kg/injection, schedule: Q04DX002 (ip), vehicle: saline with Tween-80
[3] = dose: 400.0 mg/kg/injection, schedule: Q04DX002 (ip), vehicle: saline with Tween-80
[4] = dose: 50.0 mg/kg/injection, schedule: Q01DX009 (ip), vehicle: saline
[5] = dose: 100.0 mg/kg/injection, schedule: Q01DX009 (ip), vehicle: saline
[6] = dose: 200.0 mg/kg/injection, schedule: Q01DX009 (ip), vehicle: saline
[7] = dose: 100.0 mg/kg/injection, schedule: Q01DX009 (ip), vehicle: Klucel (hydroxypropylcellulose) (HPC)
[8] = dose: 200.0 mg/kg/injection, schedule: Q01DX009 (ip), vehicle: Klucel (hydroxypropylcellulose) (HPC)
[9] = dose: 400.0 mg/kg/injection, schedule: Q01DX009 (ip), vehicle: Klucel (hydroxypropylcellulose) (HPC)
[10] = dose: 100.0 mg/kg/injection, schedule: Q04DX003 (ip), vehicle: saline
[11] = dose: 200.0 mg/kg/injection, schedule: Q04DX003 (ip), vehicle: saline
[12] = dose: 400.0 mg/kg/injection, schedule: Q04DX003 (ip), vehicle: saline
[13] = dose: 100.0 mg/kg/injection, schedule: Q04DX003 (ip), vehicle: Klucel (hydroxypropylcellulose) (HPC)
[14] = dose: 50.0 mg/kg/injection, schedule: Q04DX003 (ip), vehicle: saline with Tween-80
[15] = dose: 100.0 mg/kg/injection, schedule: Q04DX003 (ip), vehicle: saline with Tween-80
[16] = dose: 200.0 mg/kg/injection, schedule: Q04DX003 (ip), vehicle: saline with Tween-80
[17] = dose: 400.0 mg/kg/injection, schedule: Q01DX009 (ip), vehicle: saline
[18] = dose: 50.0 mg/kg/injection, schedule: Q01DX009 (ip), vehicle: saline with Tween-80
[19] = dose: 100.0 mg/kg/injection, schedule: Q01DX009 (ip), vehicle: saline with Tween-80
[20] = dose: 200.0 mg/kg/injection, schedule: Q01DX009 (ip), vehicle: saline with Tween-80
[21] = dose: 200.0 mg/kg/injection, schedule: Q04DX003 (ip), vehicle: Klucel (hydroxypropylcellulose) (HPC)
[22] = dose: 25.0 mg/kg/injection, schedule: Q04DX003 (ip), vehicle: saline with Tween-80
[23] = dose: 400.0 mg/kg/injection, schedule: Q04DX003 (ip), vehicle: Klucel (hydroxypropylcellulose) (HPC)

## Cc1oc(-c2ccccc2)nc1C(C)(O)c1ccccc1 (stereo not drawn)
[1]
  T/C: 118 % of control
[2]
  T/C: 103 % of control
[3]
  T/C: 112 % of control

## Nc1cc(Cl)ccc1O
[4]
  T/C: 114 % of control
[5]
  T/C: 97 % of control
[6]
  T/C: 116 % of control

## O=C1OC(=O)c2c1ccc(Br)c2Br
[7]
  T/C: 100 % of control
[8]
  T/C: 90 % of control
[9]
  T/C: 90 % of control

## O=c1cc(CO)occ1O.O=c1cc(CO)occ1O.[O]=[V]
dose: 6.25 mg/kg/injection, schedule: Q01DX009 (ip), vehicle: saline
  T/C: 105 % of control
dose: 12.5 mg/kg/injection, schedule: Q01DX009 (ip), vehicle: saline
  T/C: 94 % of control
dose: 25.0 mg/kg/injection, schedule: Q01DX009 (ip), vehicle: saline
  T/C: 100 % of control

## CNC(=S)N/N=C(/C)CCc1c(C)nn(C(=S)NC)c1C
dose: 150.0 mg/kg/injection, schedule: Q04DX003 (ip), vehicle: Klucel (hydroxypropylcellulose) (HPC)
  T/C: 112 % of control
dose: 225.0 mg/kg/injection, schedule: Q04DX003 (ip), vehicle: Klucel (hydroxypropylcellulose) (HPC)
  T/C: 112 % of control
dose: 335.0 mg/kg/injection, schedule: Q04DX003 (ip), vehicle: Klucel (hydroxypropylcellulose) (HPC)
  T/C: 108 % of control

## CCOC(=O)/C=C(/CC(=O)OCC)OCC
dose: 25.0 mg/kg/injection, schedule: Q04DX003 (ip), vehicle: saline
  T/C: 106 % of control
dose: 50.0 mg/kg/injection, schedule: Q04DX003 (ip), vehicle: saline
  T/C: 100 % of control
[10]
  T/C: 115 % of control
[11]
  T/C: 106 % of control
[12]
  T/C: 112 % of control

## N#Cc1cnc2n(c1=N)CCCCC2
[13]
  T/C: 94 % of control

## COc1c(O)ccc2c1c[n+](C)c1c3cc4c(cc3ccc21)OCO4
dose: 4.0 mg/kg/injection, schedule: Q01DX009 (ip), vehicle: saline
  T/C: 113 % of control
dose: 8.0 mg/kg/injection, schedule: Q01DX009 (ip), vehicle: saline
  T/C: 113 % of control
dose: 16.0 mg/kg/injection, schedule: Q01DX009 (ip), vehicle: saline
  T/C: 106 % of control

## CCCN1CCN(c2ccc([N+](=O)[O-])c3no[n+]([O-])c23)CC1
dose: 2.5 mg/kg/injection, schedule: Q01DX009 (ip), vehicle: saline with Tween-80
  T/C: 122 % of control
dose: 10.0 mg/kg/injection, schedule: Q01DX009 (ip), vehicle: saline with Tween-80
  T/C: 155 % of control

## CCCCOB(OCCCC)Oc1c(C(C)(C)C)cccc1C(C)(C)C
[10]
  T/C: 100 % of control
[11]
  T/C: 112 % of control
[12]
  T/C: 108 % of control

## CS(=O)(=O)OC[C@H](OS(=O)(=O)O)[C@H](COS(C)(=O)=O)OS(=O)(=O)O
[14]
  T/C: 110 % of control
[15]
  T/C: 110 % of control
[16]
  T/C: 110 % of control

## CC1(C)SC2C(NC(=O)Cc3ccccc3)C(=O)N2C1C(=O)O (stereo not drawn)
[5]
  T/C: 90 % of control
[17]
  T/C: 100 % of control

## Cc1ccc(S(=O)(=O)OCCOC(=O)OCCOS(=O)(=O)c2ccc(C)cc2)cc1
[18]
  T/C: 99 % of control
[19]
  T/C: 100 % of control
[20]
  T/C: 99 % of control

## O=C(NNc1ccccc1)c1ccccc1
dose: 50.0 mg/kg/injection, schedule: Q01DX009 (ip), vehicle: Klucel (hydroxypropylcellulose) (HPC)
  T/C: 105 % of control
dose: 50.0 mg/kg/injection, schedule: Q04DX003 (ip), vehicle: Klucel (hydroxypropylcellulose) (HPC)
  T/C: 109 % of control
[7]
  T/C: 105 % of control
[13]
  T/C: 104 % of control
[8]
  T/C: 120 % of control
[21]
  T/C: 100 % of control

## Clc1cccc(NC2=NCCN=C(Nc3cccc(Cl)c3)SS2)c1
[18]
  T/C: 111 % of control
[19]
  T/C: 102 % of control
[20]
  T/C: 111 % of control

## COc1ccccc1OC(=O)Nc1ccc(C)c([N+](=O)[O-])c1
[22]
  T/C: 100 % of control
[14]
  T/C: 104 % of control
[15]
  T/C: 100 % of control

## O=C(O)C(Br)C(Br)c1ccccc1 (stereo not drawn)
[15]
  T/C: 100 % of control
[16]
  T/C: 100 % of control
dose: 400.0 mg/kg/injection, schedule: Q04DX003 (ip), vehicle: saline with Tween-80
  T/C: 109 % of control

## CCCCCCCCCCCC#N
[5]
  T/C: 95 % of control
[6]
  T/C: 95 % of control
[17]
  T/C: 100 % of control

## O=NN(CCF)C(=O)NC1CCCCC1
dose: 1.0 mg/kg/injection, schedule: Q04DX003 (ip), vehicle: saline with Tween-80
  T/C: 90 % of control
dose: 2.0 mg/kg/injection, schedule: Q04DX003 (ip), vehicle: saline with Tween-80
  T/C: 105 % of control
dose: 4.0 mg/kg/injection, schedule: Q04DX003 (ip), vehicle: saline with Tween-80
  T/C: 120 % of control
dose: 6.25 mg/kg/injection, schedule: Q01DX009 (ip), vehicle: saline with Tween-80
  T/C: 217 % of control
dose: 12.5 mg/kg/injection, schedule: Q01DX009 (ip), vehicle: saline with Tween-80
  T/C: 260 % of control
dose: 16.5 mg/kg/injection, schedule: Q04DX003 (ip), vehicle: saline with Tween-80
  T/C: 272 % of control
dose: 25.0 mg/kg/injection, schedule: Q01DX009 (ip), vehicle: saline with Tween-80
  T/C: 121 % of control
[22]
  T/C: 95 % of control
dose: 37.5 mg/kg/injection, schedule: Q04DX003 (ip), vehicle: saline with Tween-80
  T/C: 95 % of control

## CCOC(=O)CCCN(c1sc(C)c(-c2ccccc2)c1C(=O)OCC)S(=O)(=O)c1ccc(C)cc1
[19]
  T/C: 109 % of control
[20]
  T/C: 90 % of control

## COc1cc(C(=O)CCC(=O)O)cc(OC)c1OC
[7]
  T/C: 100 % of control
[8]
  T/C: 100 % of control
[21]
  T/C: 105 % of control
[9]
  T/C: 95 % of control
[23]
  T/C: 115 % of control

## COc1cc2c(c(OC)c1OC)-c1ccc(OC)c(=O)cc1[C@@H](N)CC2
dose: 1.25 mg/kg/injection, schedule: Q01DX009 (ip), vehicle: water
  T/C: 120 % of control
dose: 2.0 mg/kg/injection, schedule: Q01DX010 (ip), vehicle: water
  T/C: 160 % of control
dose: 5.0 mg/kg/injection, schedule: Q01DX009 (ip), vehicle: water
  T/C: 94 % of control
dose: 20.0 mg/kg/injection, schedule: Q04DX003 (ip), vehicle: Klucel (hydroxypropylcellulose) (HPC)
  T/C: 176 % of control
dose: 30.0 mg/kg/injection, schedule: Q04DX003 (ip), vehicle: Klucel (hydroxypropylcellulose) (HPC)
  T/C: 98 % of control
dose: 45.0 mg/kg/injection, schedule: Q04DX003 (ip), vehicle: Klucel (hydroxypropylcellulose) (HPC)
  T/C: 89 % of control

## O=C(O)C1CCCN1C(=O)CCS (stereo not drawn)
[4]
  T/C: 90 % of control
[5]
  T/C: 90 % of control
[6]
  T/C: 97 % of control

## CN(C)c1ccc(-c2nc3c(=O)n(C)c(=O)n(C)c3nc2-c2ccc(N(C)C)cc2)cc1
[1]
  T/C: 106 % of control
[2]
  T/C: 111 % of control
[3]
  T/C: 116 % of control

## OCC1CC1c1ccccc1 (stereo not drawn)
[18]
  T/C: 101 % of control
[19]
  T/C: 102 % of control
[20]
  T/C: 109 % of control

## C#CC1(OCC(O)CCl)CCCCC1 (stereo not drawn)
[19]
  T/C: 116 % of control
[10]
  T/C: 110 % of control
[20]
  T/C: 104 % of control
[11]
  T/C: 120 % of control
[12]
  T/C: 100 % of control

## C=C(C)CP(=O)(c1ccccc1)c1ccccc1
[18]
  T/C: 96 % of control
[19]
  T/C: 100 % of control
[20]
  T/C: 91 % of control

## OC1CCCCC2CC12 (stereo not drawn)
[18]
  T/C: 101 % of control
[19]
  T/C: 101 % of control
[20]
  T/C: 102 % of control

## CNC(=O)c1n[nH]c(C)c1[N+](=O)[O-]
dose: 25.0 mg/kg/injection, schedule: Q04DX003 (ip), vehicle: water
  T/C: 101 % of control
dose: 50.0 mg/kg/injection, schedule: Q04DX003 (ip), vehicle: water
  T/C: 106 % of control
dose: 100.0 mg/kg/injection, schedule: Q04DX003 (ip), vehicle: water
  T/C: 114 % of control
dose: 200.0 mg/kg/injection, schedule: Q04DX003 (ip), vehicle: water
  T/C: 97 % of control
dose: 400.0 mg/kg/injection, schedule: Q04DX003 (ip), vehicle: water
  T/C: 87 % of control

## Cc1cc(Cl)ccc1NC(=O)c1ccccc1C(=O)O
[13]
  T/C: 91 % of control
[21]
  T/C: 91 % of control
[23]
  T/C: 87 % of control

## N#Cc1ccccc1CC(O)(c1ccccc1)c1ccccn1 (stereo not drawn)
[18]
  T/C: 100 % of control
[19]
  T/C: 103 % of control
[20]
  T/C: 115 % of control
